In patent US10793557B2, “Sting agonist compounds” (Merck Sharp & Dohme Corp., priority 2018, dated 2020):

Tests used:
full-length WT STING = biological target: T1, full-length WT STING (Homo sapiens, UniProt Q86WV6, H232R); experiment: 3H-cGAMP filtration binding assay (WT STING); conditions: competition with tritiated cGAMP, WT STING membrane
T1 construct: AviTag (after gg linker) (C); HRV3C cleavage site (after gs linker) (C); HIS8 (C); made in house; host or cells: Trichoplusia ni (Hi-Five) insect cells infected with baculovirus (virus generated and amplified in Sf21 cells); used as a washed membrane preparation
Description: (§1) The ability of compounds to bind STING is quantified by their ability to compete with tritiated cGAMP ligand for human STING receptor membrane using a radioactive filter-binding assay. The binding assay employs STING receptor obtained from Trichoplusia ni cell membranes (T. ni; Expression Systems, cat #94-002F, www.expressionsystems.com) overexpressing full-length WT STING and tritiated cGAMP ligand.
The basic WT STING filtration assay protocol is as follows:
16 nM of [^3H] c-GAMP ligand was prepared by diluting into assay buffer, and 50 uL of this working stock was manually added to each well of the assay plate. After ligand addition, 2 uL of either titrated test compound, DMSO control (Sigma #276855), or cold cGAMP control was added to the appropriate wells using a BIOMEK FX. The serially titrated compound was prepared on a Hamilton STARPlus CORE in a 96-well plate (Greiner, #651201) using a 1:3 ten-point dose response format. Following compound addition, a 2.2 ug/ml working concentration of STING membrane (SEQ. ID. No. 3) was prepared by diluting concentrated membrane into assay buffer (1×PBS; Invitrogen # SH30028.02) and douncing 7× using a manual tissue homogenizer (Wheaton, #357546). 148 uL of this prepared membrane was then manually added to each well of a 96-well deep-well polypropylene plate (Fisher Scientific, #12-566-121). Compound, ligand, and membrane then incubated for 60 min at RT before the contents of each assay plate were filtered through a 96-well GF/B filter plate (PerkinElmer, #6005250) using a TOMTEC MACH III Cell Harvester equipped with 20 mM HEPES buffer (Fisher Scientific, # BP299500). The filter plates were then dried at 55° C. for 30 min using a pressurized VWR oven before 30 uL of ULTIMA GOLD F scintillate was added to each well. Tritium levels for each reaction well were then measured using a PerkinElmer TopCount plate reader.
(§2) After normalization to controls, the percent activity for each compound concentration was calculated by measuring the amount of remaining radioactivity. The plot of percent activity versus the log of compound concentration was fit with a 4-parameter dose response equation to calculate EC50 values.

[1] = tested on: secretion of interferon-beta from THP1 cells; experiment: IFN-β secretion in THP1 cell culture (5 h); type: cell-based; conditions: Homo sapiens, THP-1, 5 h, compound at 30 μM, 30 uM cGAMP = 100%, read-out: % Effect at 30 μM relative to 2′3′-cGAMP
Description: The ability of compounds to stimulate the secretion of interferon-beta from THP1 cells was measured using a human IFN-β AlphaLISA kit (Perkin Elmer, Cat. No. AL265F). The basic protocol is as follows:
A Labcyte Echo 550 acoustic dispenser was used to transfer 120 nL of compound dissolved in DMSO into the wells of an empty, sterile 384-well microplate, (Corning, Cat. No. 3712). THP1 cells (American Type Culture Collection, Cat. No. TIB202) previously frozen in Recovery Medium (Life Technologies, Cat. No. 12648-010) were thawed and immediately diluted 10-fold into 37° C. assay medium (RPMI 1640+L-Glutamine & phenol red, Life Technologies, Cat. No. 11875-085; 0.5% heat inactivated fetal bovine serum, Sigma Aldrich, Cat. No. F4135; 1 mM Sodium Pyruvate, Life Technologies, Cat. No. 11360-070; 1× non-essential amino acids; Life Technologies, Cat. No. 11140-050). The cell viability and count was ascertained using a Beckman Coulter V-Cell XR cell counter. The cells suspension was centrifuged at 200×g for 5 min at RT. Cells were resuspended to a density of 0.8×10^6/mL in 37° C. assay medium. Subsequent liquid transfers were performed using either a Matrix electronic multichannel pipette or an Agilent Bravo Automated Liquid Handling Platform.
The assay was started by dispensing 40 μL of the previously prepared cell suspension into the wells of the plate containing compounds. After 5 h incubation at 37° C., 5% CO2 in a humidified atmosphere, the plate of cells and compounds was centrifuged at 200×g for 5 min at RT. From each well, 5 μL of supernatant was transferred into corresponding wells of a white 384-well plate (Perkin Elmer, Cat. No. 6005620). To these supernatant-containing wells was added 10 μL of 5× Anti-Analyte Acceptor beads (50 μg/mL of AlphaLISA HiBlock Buffer) and incubated for 30 min at RT while shaking on an orbital plate shaker. To each well was added 10 μL of 5× Biotinylated Antibody Anti-analyte (5 nM in AlphaLISA HiBlock Buffer) and incubated on an orbital plate shaker for 60 min at RT or overnight at 4° C. To each well was added 25 μL of 2× SA-Donor beads (80 μg/mL in AlphaLISA HiBlock Buffer) and incubated for 30-45 min at RT in the dark while shaking on an orbital plate shaker. The plate was then read on a Perkin Elmer Envision (λex=680 nm, […]). The percent effect of the AlphaLISA signal at each compound concentration was calculated based on 30 uM cGAMP positive controls and 0.3% DMSO negative controls. The plot of percent effect versus the log of compound concentration was fit with a 4-parameter concentration response equation to calculate EC50 values. The test compounds were tested at concentrations 30000, 10000, 3333, 1111, 370.4, 123.4, 41.2, 13.7, 4.6, and 1.5 nM with 0.3% residual DMSO. The control compound, cGAMP was tested at concentrations 100000, 33333, 11111, 3704, 1235, 412, 137, 46, and 15 nM with 0.3% residual DMSO.
Compounds of the disclosure were evaluated for IFN-β secretion in THP1 cell culture as described above. The following table tabulates the biological data for these compounds as percent activation relative to 2′3′-cGAMP at the 30 µM concentration.

full-length HAQ STING = biological target: T2, full-length HAQ STING (Homo sapiens, UniProt Q86WV6, G230A/H232R/R293Q/R71H); experiment: 3H-cGAMP filtration binding assay (HAQ STING); conditions: competition with tritiated cGAMP, HAQ STING membrane
T2 construct: AviTag (after GG linker) (C); HRV3C cleavage site (after GS linker) (C); HIS8 (C); made in house; host or cells: Trichoplusia ni (Hi-Five) insect cells infected with baculovirus (virus generated and amplified in Sf21 cells); used as a washed membrane preparation
Source text: The ability of compounds to bind STING is quantified by the ability to compete with tritiated cGAMP ligand for human STING receptor membrane using a radioactive filter-binding assay. The binding assay employs STING receptor obtained from Hi-Five cell membranes overexpressing full-length HAQ STING prepared in-house and tritiated cGAMP ligand also purified in-house.
as §1, with “HAQ” for “WT”
The basic HAQ STING filtration assay protocol is as follows:
The compounds were serially titrated by the Hamilton STARPlus CORE in a 96-well plate (Greiner, #651201) using a 1:3 ten-point dose response format. After compound preparation, a 2.2 ug/ml working concentration of STING membrane (SEQ. ID. No. 1) was prepared by diluting concentrated membrane into assay buffer (1×PBS; Invitrogen # SH30028.02) and douncing 7× using a manual tissue homogenizer (Wheaton, #357546). 148 uL of prepared membrane was then manually added to each well of a 96-well deep-well polypropylene plate (Fisher Scientific, #12-566-121). Following membrane addition, 2 uL of either titrated test compound, DMSO control (Sigma #276855), or cold cGAMP control was added to the appropriate wells using a BIOMEK FX. Compound and membrane then preincubated for 60 min at RT to allow compound binding to equilibrate. Following equilibration, 8 nM of [^3H]c-GAMP ligand was prepared by diluting into assay buffer, and 50 uL of this working stock was then manually added to each well of the assay plate. Plates were then incubated at RT for 60 min, and the contents of each assay plate were then filtered through a 96-well GF/B filter plate (PerkinElmer, #6005250) using a TOMTEC MACH III Cell Harvester equipped with 20 mM HEPES buffer (Fisher Scientific, # BP299500). The filter plates were then dried at 55° C. for 30 min using a pressurized oven before 30 uL of ULTIMA GOLD F scintillate was added to each well. Tritium levels for each reaction well were then measured using a PerkinElmer TopCount plate reader.
as §2

T1 sequence (Q86WV6 with tags, fused parts or gaps H232R): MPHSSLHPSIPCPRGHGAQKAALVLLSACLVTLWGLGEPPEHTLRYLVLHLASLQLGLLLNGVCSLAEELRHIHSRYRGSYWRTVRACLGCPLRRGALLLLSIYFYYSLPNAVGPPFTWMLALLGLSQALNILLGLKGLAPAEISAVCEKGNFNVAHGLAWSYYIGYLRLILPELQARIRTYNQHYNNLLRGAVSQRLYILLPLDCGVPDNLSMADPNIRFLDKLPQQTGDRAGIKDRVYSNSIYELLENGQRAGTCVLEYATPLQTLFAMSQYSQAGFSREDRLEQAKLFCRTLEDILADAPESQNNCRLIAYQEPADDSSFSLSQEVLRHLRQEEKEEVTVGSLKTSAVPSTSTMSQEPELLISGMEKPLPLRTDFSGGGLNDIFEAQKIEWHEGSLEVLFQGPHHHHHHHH
T2 sequence (Q86WV6 with tags, fused parts or gaps R71H/G230A/H232R/R293Q): as the sequence (Q86WV6 with tags, fused parts or gaps H232R) above, with R71H, G230A, R293Q counted along it

EC50 (full-length WT STING) [nM] | EC50 (full-length HAQ STING) [nM] | Compound | activation at 30 µM [1] [%]
76 | 12 | COc1cc2sc(C(=O)CCC(=O)O)cc2nc1CCOc1nc2cc(C(=O)CCC(=O)O)sc2cc1OC [Example 8, 4-(5-(2-(2-(3-carboxypropanoyl)-6-methoxythieno[3,2-b]pyridin-5-yl)ethoxy)-6-methoxythieno[3,2-b]pyridin-2-yl)-4-oxobutanoic acid] | 99
322 | 116 | COc1cc2sc(C(=O)CCC(=O)O)nc2cc1OCCc1nc2cc(C(=O)CCC(=O)O)sc2cc1OC [Example 9, 4-(5-(2-((2-(3-carboxypropanoyl)-6-methoxybenzo[d]thiazol-5-yl)oxy)ethyl)-6-methoxythieno[3,2-b]pyridin-2-yl)-4-oxobutanoic acid] | 48
421 | 123 | COc1cc2sc(C(=O)CCC(=O)O)cc2cc1CCCOc1nc2cc(C(=O)CCC(=O)O)sc2cc1OC [Example 10, 4-(5-(3-(2-(3-carboxypropanoyl)-6-methoxybenzo [b]thiophen-5-yl)propoxy)-6-methoxythieno[3,2-b]pyridin-2-yl)-4-oxobutanoic acid] | 134
4560 | 1760 | COc1cc2sc(C(=O)CCC(=O)O)cc2cc1OCCOc1ccc2sc(C(=O)CCC(=O)O)cc2c1 [Example 11, 4-(5-(2-((2-(3-carboxypropanoyl)-6-methoxybenzo [b]thiophen-5-yl)oxy)ethoxy)benzo[b]thiophen-2-yl)-4-oxobutanoic acid] | 7
625 | 158 | COc1cc2sc(C(=O)CCC(=O)O)cc2cc1OCCCc1nc2cc(C(=O)CCC(=O)O)sc2cc1OC [Example 13, 4-(5-(3-((2-(3-carboxypropanoyl)-6-methoxybenzo[b]thiophen-5-yl)oxy)propyl)-6-methoxythieno[3,2-b]pyridin-2-yl)-4-oxobutanoic acid] | 67
21 | 3 | COc1cc2sc(C(=O)C[C@H](C)C(=O)O)cc2cc1CCCOc1nc2cc(C(=O)CCC(=O)O)sc2cc1OC [Example 14, (S)-4-(5-(3-((2-(3-carboxypropanoyl)-6-methoxythieno[3,2-b]pyridin-5-yl)oxy)propyl)-6-methoxybenzo[b]thiophen-2-yl)-2-methyl-4-oxobutanoic acid] | 77
615 | 107 | COc1cc2sc(C(=O)C[C@H](C)C(=O)O)cc2cc1OCCCc1nc2cc(C(=O)CCC(=O)O)sc2cc1OC [Example 15, (S)-4-(5-(3-(2-(3-carboxypropanoyl)-6-methoxythieno [3,2-b]pyridin-5-yl)propoxy)-6-methoxybenzo[b]thiophen-2-yl)-2-methyl-4-oxobutanoic acid] | 114
51 | 22 | COc1cc2sc(C(=O)C[C@H](C)C(=O)O)cc2cc1CCCOc1nc2cc(C(=O)C[C@H](C)C(=O)O)sc2cc1OC [Example 16, (S)-4-(5-(3-(2-((S)-3-carboxybutanoyl)-6-methoxybenzo [b]thiophen-5-yl)propoxy)-6-methoxythieno[3,2-b]pyridin-2-yl)-2-methyl-4-oxobutanoic acid] | 70
299 | 52 | COc1cc2sc(C(=O)CCC(=O)O)cc2cc1OCCOc1nc2cc(C(=O)C[C@H](C)C(=O)O)sc2cc1OC [Example 17, (S)-4-(5-(2-((2-(3-carboxypropanoyl)-6-methoxybenzo [b]thiophen-5-yl)oxy)ethoxy)-6-methoxythieno[3,2-b]pyridin-2-yl)-2-methyl-4-oxobutanoic acid] | 38
8 | 2 | COc1cc2sc(C(=O)CCC(=O)O)cc2cc1OCCCOc1nc2cc(C(=O)C[C@H](C)C(=O)O)sc2cc1OC [Example 18, (S)-4-(5-(3-((2-(3-carboxypropanoyl)-6-methoxybenzo [b]thiophen-5-yl)oxy)propoxy)-6-methoxythieno [3,2-b]pyridin-2-yl)-2-methyl-4-oxobutanoic acid] | 62
